This note sets out measurements from patent publication US20120195840A1, “PERSONAL CARE COMPOSITION” (priority 2009, published 2012).

This assay concerns the target T1, human tyrosinase enzyme (Homo sapiens, UniProt P14679).
T1 sequence (P14679 19-529): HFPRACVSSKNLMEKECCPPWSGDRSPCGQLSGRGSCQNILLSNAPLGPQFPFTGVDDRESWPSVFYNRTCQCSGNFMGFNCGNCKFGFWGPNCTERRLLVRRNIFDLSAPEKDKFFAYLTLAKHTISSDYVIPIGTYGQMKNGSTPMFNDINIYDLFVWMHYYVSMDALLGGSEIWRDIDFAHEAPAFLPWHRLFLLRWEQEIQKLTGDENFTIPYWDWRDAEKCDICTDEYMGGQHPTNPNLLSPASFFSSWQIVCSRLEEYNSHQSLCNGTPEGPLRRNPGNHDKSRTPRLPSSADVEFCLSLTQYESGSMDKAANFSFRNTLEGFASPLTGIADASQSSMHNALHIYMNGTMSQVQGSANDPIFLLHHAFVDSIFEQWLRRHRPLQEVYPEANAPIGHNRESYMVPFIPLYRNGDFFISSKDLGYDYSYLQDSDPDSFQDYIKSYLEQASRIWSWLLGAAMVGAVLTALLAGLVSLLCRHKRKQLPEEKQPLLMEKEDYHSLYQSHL
As to the kind of experiment: human tyrosinase inhibition (procedure as for mushroom tyrosinase). Format: biochemical. The settings on record: sample at 7.5 ppm. As to the method:
An indication of the efficacy of skin lightening was determined using an in-vitro tyrosinanse inhibition assay using mushroom tyrosinase. The assay comprised measuring O-diphenolase activities of mushroom tyrosinase with L-DOPA as substrate. This was determined spectrophotometrically by measuring the rate of dopachrome formation at 450 nm (ε=3700 M−1 cm−1). Inhibition studies were done by measuring the dopachrome formation in the presence of various extracts of plant material. The experiment was conducted using the following procedure:
The following stock solutions were prepared. 0.1 M phosphate buffer (KH2PO4, pH=6.5); 3.5 mM L-DOPA in phosphate buffer; 1 mg/ml mushroom tyrosinase enzyme (100 kU) in phosphate buffer. To the KH2PO4 buffer (q.s. to 200 μL) in a 96 well plate having flat bottom was added the desired sample (about 6 μl) followed by 8 μL of mushroom tyrosinase enzyme. This was left at room temperature in the dark for 15 min to enable incubation. Then L-DOPA (57 μL, […]) was added to the resultant solution and the progress of dopachrome formation was observed by measuring the absorbance at 450 nm (A450) on a Tecan spectrophotometer. Percent inhibition was calculated using (Control: without inhibitor) […]

As for `CCc1ccc(O)cc1O` [Example 5, ethyl resorcinol], the “% human tyrosinase inhibition” value is given as 40%.
